A melting point compilation (Tetko et al.)

| SMILES | melting point |
| --- | --- |
| CC(Cl)C(=O)Nc1cccc(CSc2ccccn2)c1 (centres undefined) | 97 to 99 °C |
| Cc1cc2cc(C=O)oc2cc1C | 69 to 71 °C |
| Nc1ccc(N2CCCCC2)c(S(=O)(=O)Nc2ccccc2Cl)c1 | 146 to 148 °C |
| CC1CCN(Cc2ccccc2CN)CC1 | 161 to 163 °C |
| Cc1cc2ncc(C=O)cn2n1 | 149 to 151 °C |
| Oc1cccc(-c2cn[nH]c2)c1 | 218 to 220 °C |
| CCCOc1ccc2c(c1)OCC(C=O)=C2 | 55 to 57 °C |
| Cc1ccc(SC2CCCC2)c(C(=O)O)c1 | 130 to 132 °C |
| Nn1c(S)nnc1-c1ccncc1 | 250 to 254 °C |
| Cc1c(N)cccc1CS(C)(=O)=O | 149 to 151 °C |
| CC(N)Cn1cnc2c(cnn2C)c1=O (centres undefined) | 148 to 150 °C |
| Cc1cc(C)cc(NC(=O)CCl)c1 | 141 to 143 °C |
| CCOC(=O)c1cncnc1O | 179 to 181 °C |
| O=C(O)c1ccc(-n2cc(Br)cn2)nn1 | 209 to 211 °C |
| CCOC(=O)NC(=S)Nc1nccs1 | 169 to 171 °C |
| CC(C)Oc1ccc(C(O)CN)cc1 (centres undefined) | 62 to 64 °C |
| CCOC(=O)c1ncsc1NC | 92 to 94 °C |
| CC(C)c1cc(=O)oc2cc(O)ccc12 | 77 to 79 °C |
| COc1ccc(OC)c(C=NO)c1 | 94 to 96 °C |
| CCN1C(=O)CNC1=O | 100 to 102 °C |
| O=C(O)COc1ccc(C(=O)c2ccccc2Cl)cc1 | 141 to 143 °C |
| COc1nc(Cl)c(C=O)s1 | 43 to 45 °C |
| NC(=NO)c1ccc(O)cc1 | 152 to 156 °C |
| O=C(O)Cc1csc(N2CCNC2=O)n1 | 179 to 181 °C |
| COc1ccc(O)c(C(C)N)c1 (centres undefined) | 123 to 125 °C |
| O=C(O)c1ccn[nH]1 | 212 to 216 °C |

| SMILES | melting point |
| --- | --- |
| Nc1ccc(N2CCOC2=O)cc1 | 149 to 151 °C |
| Cc1cc(C)n2nc(Br)nc2n1 | 185 to 187 °C |
| COC(=O)c1ccc(S(=O)(=O)Cl)cc1C | 54 to 56 °C |
| O=C(CCl)N1CCc2[nH]c3ccccc3c2C1 | 188 to 190 °C |
| O=C(CCl)NCc1ccc(F)cc1 | 92 to 95 °C |
| Cn1cc(NC(=O)OCC(F)(F)F)ccc1=O | 208 to 210 °C |
| N#CCc1cn(-c2ccccc2)nc1-c1ccc(Cl)cc1 | 126 to 128 °C |
| Nc1ccc(S(=O)(=O)Nc2ccc(F)cc2)cc1 | 162 to 164 °C |
| O=C(O)c1ccc(-n2cncn2)c([N+](=O)[O-])c1 | 274 to 276 °C |
| Brc1ncn2ccccc12 | 77 to 79 °C |
| Cn1c(-c2ccccc2)cnc1S | 180 to 182 °C |
| CCOc1cccnc1C(=O)O | 130 to 132 °C |
| CC(C)(C)c1ccc(-c2nnc(CCl)o2)cc1 | 65 to 67 °C |
| Cc1nn(C)c(Oc2cccnc2)c1C=O | 91 to 93 °C |
| Cc1ccc(S(=O)(=O)N2CCOCC2)cc1C(=O)O | 148 to 152 °C |
| COc1ccc(S(=O)(=O)Cl)cc1NC(C)=O | 145 to 147 °C |
| CC(NC(=O)OC(C)(C)C)c1ccc(-c2cccc(C#N)c2)cc1 (centres undefined) | 103 to 105 °C |
| CC(NC(=O)c1cccc(Cl)c1Cl)C(=O)O (centres undefined) | 152 to 154 °C |
| CC(Oc1ccc(-c2ccccc2)cc1)C(=O)O (centres undefined) | 159 to 161 °C |
| c1ccc2[nH]c(-c3ccncc3)cc2c1 | 208 to 210 °C |
| COC(=O)c1cccc(S(=O)(=O)N2CCCCC2)c1 | 83 to 85 °C |
| CC(C)C1OC(N)=NC1=O (centres undefined) | 219 to 221 °C |
| CC(Oc1ccc(C#N)cc1)C(=O)NN (centres undefined) | 129 to 131 °C |
| O=[N+]([O-])c1ccc(-c2ncon2)cc1 | 166 to 168 °C |
| O=c1[nH]c(S)nc2cc(Cl)ccc12 | 306 to 308 °C |
| Cc1nc(=O)cc[nH]1 | 213 to 215 °C |

| SMILES | melting point |
| --- | --- |
| O=C(c1c(F)cccc1F)N1CCNCC1 | 111 to 113 °C |
| CCOC(=O)C1=C(C)NN=C(C)C1 | 99 to 101 °C |
| O=C(O)C1(c2ccc(OCc3ccccc3)cc2)CCOCC1 | 151 to 153 °C |
| N#CCc1ccc(OCc2ccc(Cl)nc2)cc1 | 99 to 101 °C |
| Nc1ccc(Sc2ccc(C(F)(F)F)cc2)cc1 | 93 to 95 °C |
| O=c1[nH]c(CCl)nc2scc(-c3ccco3)c12 | 230 to 232 °C |
| Cn1nc(C(C)(C)C)c2cc(C(=O)O)cnc21 | 243 to 245 °C |
| Nc1cc(C2CCC2)nn1-c1ccccc1 | 87 to 89 °C |
| O=C1CN(Cc2ccccc2)CCN1 | 150 to 152 °C |
| CN(C)c1ccc(-n2ccnc2S)cc1 | 249 to 251 °C |
| O=[N+]([O-])c1cnn(CCCl)c1 | 55 to 57 °C |
| COc1ccc(NC(=O)CCCl)cc1 | 120 to 122 °C |
| CCNC(=O)c1cccc(C#N)c1 | 99 to 101 °C |
| C1CCc2nnc(C3CCCNC3)n2CC1 (centres undefined) | 171 to 173 °C |
| Cc1cc(C=O)c(C)n1-c1cccc(C(F)(F)F)c1 | 103 to 105 °C |
| N#Cc1nccnc1Oc1ccc(N)cc1 | 170 to 172 °C |
| O=C(O)CCn1cc[nH]c(=O)c1=O | 239 to 241 °C |
| CC(=O)c1ccc(-c2ccc(C(F)(F)F)cc2)s1 | 127 to 129 °C |
| OCc1ccnc(-n2ccnc2)c1 | 155 to 157 °C |
| CCOC(=O)c1c(CCCO)cnc2cc(C)nn12 | 76 to 78 °C |
| N#CC(NC(=O)c1ccccc1)C1CC1 (centres undefined) | 91 to 93 °C |
| COc1ccc(Cn2c(N)nc3ccccc32)cn1 | 173 to 175 °C |
| CN1CC(=O)Nc2cccnc21 | 161 to 163 °C |
| O=C(Nc1ccc(F)cc1)NC1CCNCC1 | 183 to 185 °C |
| CC(C)C(=O)NC(C)C(=O)O (centres undefined) | 154 to 156 °C |
| Nc1ccc2[nH]c(=O)c(=O)[nH]c2c1 | 352 to 354 °C |

| SMILES | melting point |
| --- | --- |
| O=C(O)c1noc(-c2cc(F)cc(F)c2)n1 | 136 to 138 °C |
| Sc1nnc(CCc2ccccc2)o1 | 92 to 94 °C |
| [N-]=[N+]=Nc1ccc(Cl)c(Cl)c1 | 32 to 34 °C |
| O=C(O)C=Cc1ccccc1OCc1cccc(Br)c1 | 148 to 150 °C |
| COc1cc(C=CC(=O)O)ccc1F | 211 to 213 °C |
| N#CC1=C(N)CCC1 | 146 to 148 °C |
| COc1ccc2ncc(=O)[nH]c2c1 | 179 to 181 °C |
| CNS(=O)(=O)c1cccc(C(=O)O)c1 | 209 to 211 °C |
| O=C(O)c1cccc([N+](=O)[O-])c1Br | 184 to 186 °C |
| COC(=O)c1cc(I)cc(S(=O)(=O)Cl)c1 | 67 to 69 °C |
| Cc1nc(C)c(CCl)s1 | 62 to 64 °C |
| O=C(O)C=Cc1ccc2ccccc2n1 | 169 to 171 °C |
| CCCN1C(=O)C(=O)c2cc(Br)ccc21 | 129 to 131 °C |
| c1ccc(OCCc2nc3ccccc3[nH]2)cc1 | 136 to 138 °C |
| Cc1ccn(-c2cccc(C(=O)O)c2)n1 | 198 to 200 °C |
| Nc1ccc(-c2nnc[nH]2)cc1 | 203 to 205 °C |
| Cc1nn(CC(=O)O)c(C)c1[N+](=O)[O-] | 179 to 181 °C |
| O=C(Nc1cccc(F)c1)C1CSCN1 (centres undefined) | 222 to 224 °C |
| Cc1cc(N)n(-c2nc3ccccc3[nH]2)n1 | 203 to 205 °C |
| OCc1ccc(O)c(F)c1 | 81 to 83 °C |
| O=C(O)c1nc(NCCc2ccccc2)ncc1Cl | 158 to 160 °C |
| CCN(CC)c1ccc(S(N)(=O)=O)cc1N | 102 to 104 °C |
| O=C(O)c1cccn1CCc1ccccc1 | 119 to 121 °C |
| NS(=O)(=O)c1cc(C(=O)O)ccc1F | 236 to 238 °C |
| O=C(O)c1cc2ccccn2c1 | 179 to 181 °C |
| O=C(O)CSc1nnc(NC2CCCCC2)s1 | 157 to 159 °C |
